Measurements reported in US6417399B1, “Amelioration of neurological disorders by the administration of (2R),(3S), and/or (2S),3(S) stereoisomers of valnoctamide” (Yissum Research Development Company of the Hebrew …, priority 1997, dated 2002).
Several values for one entry are separate records, joined by “and”; a condition that tells them apart may be missing. Equal entries are not always repeated.

Key:
Assay type in all cases: in vivo, human
[1] = Pharmacokinetics of VCD stereoisomers in plasma after single oral dose of racemic valnoctamide to epileptic patients; conditions: for CL/F / Cmax / MRT / tmax / t½: single oral 400 mg racemic VCD; for half lives: epileptic patients
Protocol: (§1) Patients Six epileptic patients (four men and two women aged 23-35 years, with a body weight of 56-85 kg) were studied. All had been receiving a constant carbamazepine dose (800-1200 mg/day) for at least three months. One patient was also receiving phenytoin (250 mg/day) and a second patient phenobarbital (150 mg/day). Each patient received add-on VCD for eight consecutive days at a dosage of 400 mg on day 1 (single dose day), followed by 200 mg three times daily (tid) for seven days. On the last day, only the morning and the midday doses were administered. Blood samples for plasma VCD levels were collected at 0, 0.25, 0.5, 1, 1.5, 2, 3, 4, 5, 6, 8, 10, 12 and 24 hours after the first and the last morning dose. Additional samples were taken at times 0, 0.5, 1, and 2 hours after the morning dose on the last treatment day.
(§2) Plasma Handling and Analytical Assays Plasma samples were separated immediately by centrifugation at 2,000 g for 10 minutes and stored at −20° C. until assaying (VCD is stable at −20° C.). The VCD plasma samples were analyzed by a gas chromatograph (HP 5890 series II)-mass spectrometer (HP 5989A)-GC-MS data system equipped with chiral capillary column. The mass spectrometer was operated in E1 mode at 70eV, the source temperature of the MS was maintained at 200° C. and the quadruple at 100° C. Mass units and their relative abundance were calibrated with perfluorotributylamine (PFTBA). Spectra were collected in the range of […], and the chiral analysis started 18 minutes after injection. Gas chromatograph (GC) oven temperature programming conditions were as follows: 50° C. for 1 minute, then increasing at a rate of 8° C./minute until 100° C., holding for a minute then 4° C./minute until reaching a final temperature of 250° C. The injector temperature is 240° C. and the GC-MS transfer line temperature is 250° C. Inlet pressure is 5 psi with a linear flow rate 20 cm/second. Helium was used as the carrier gas. Chromatographic resolution of the VCD stereoisomers was accomplished by a direct separation on a chiral stationary phase (CSP) column. The CSP consisted of a Chirasil-γ-Dex (octakis (3-O-butanoyl-2,6-di-o-pentyl)-γ-cyclodextrin chemically linked via a 6-mono-octamethylene spacer to a dimethylpolysiloxane. The 0.25 μm Chirasil-γ-Dex was coated on a 25 m×250 μm (id) fused silica capillary column. This CSP of a cyclodextin derivative allows complete baseline resolution of the four stereoisomers (α=1.04, Rs=2.0-2.4) in 24 minutes as depicted in FIG. 2. Intra and inter-day variability in the retention times of the four VCD stereoisomers was less than 10%. A calibration curve was established by spiking drug-free plasma samples with known amounts of racemic VCD at a concentration range of 0.2 mg/L to 8 mg/L (or 0.05 mg/L to 2 mg/L of each of the four VCD stereoisomers).
(§3) Pharmacokinetic and Statistical Analysis Pharmacokinetic parameters were calculated by noncompartmental analysis according to statistical moment theory. Peak plasma concentrations (Cmax) and peak times (tmax) were derived directly from the measured values. The linear terminal slopes (λ) of the log-concentration of each VCD stereoisomer versus time curves were calculated by the peeling procedure. Half life (t½) values were calculated as 0.693/λ. Areas under the plasma concentration versus time curve (AUC), after single dosing, were calculated by the trapezoidal rule with extrapolation to infinity by dividing the last measured concentration by the terminal slope. During repeated administration AUC was calculated over the last two dosing intervals by using the trapezoidal rule. Mean residence time (MRT) was calculated after single dosing as AUMC/AUC, in which AUMC is the area under the concentration×time product versus time curve from zero to infinity. Following single dosing, oral clearance (CL/F, in which F is the oral availability) and apparent volume of distribution at steady state (Vss/F) were calculated as Dose/AUC and as MRT×CL/F, respectively. […]

[2] = Pharmacokinetics of VCD stereoisomers in plasma after repeated oral dosing of racemic valnoctamide to epileptic patients; conditions: repeated oral racemic VCD 200 mg tid, last day
Protocol: as §1, §2, §3

[3] = Pharmacokinetics of VCD stereoisomers in plasma after single oral dose of racemic valnoctamide to healthy subjects
Protocol: Healthy Subjects Seven healthy male volunteers, aged 20-31 years, weighing 61 to 85 kg, received 2×200 mg valnoctamide tablets (Nirvanil@) at 08:00 hours after an overnight fast. Venous blood samples were taken through an indwelling catheter 0, 0.5, 1, 2, 3, 4, 5, 6, 8, 10, 12 and 24 hours after dosing. Food was witheld for 4 hours after dosing.
as §2
Pharmacokinetic and Statistical Analysis Pharmacokinetic parameters were calculated by noncompartmental analysis according to statistical moment theory. Peak plasma concentrations (Cmax) and peak times (tmax) were derived directly from the measured values. The linear terminal slopes (λ) of the log-concentration of each VCD stereoisomer versus time curves were calculated by the peeling procedure. Half life (t½) values were calculated as 0.693/λ. Areas under the plasma concentration versus time curve (AUC), after single dosing, were calculated by the trapezoidal rule with extrapolation to infinity by dividing the last measured concentration by the terminal slope. During repeated administration AUC was calculated over the last two dosing intervals by using the trapezoidal rule. Mean residence time (MRT) was calculated after single dosing as AUMC/AUC, in which AUMC is the area under the concentration×time product versus time curve from zero to infinity. Following single dosing, oral clearance (CL/F, in which F is the oral availability) and apparent volume of distribution at steady state (Vss/F) were calculated as Dose/AUC and as MRT×CL/F, respectively. Following repeated dosing, CL/F was calculated from the quotient of the dose (200 mg) and the AUC obtained during one dosing interval (defined as one-half of the AUC calculated over two consecutive dosing intervals). Comparison of the pharmacokinetic parameters of all four VCD stereoisomers was made by ANOVA.

[4] = Mean ± SD of six epileptic patients
[5] = individual epileptic patients on carbamazepine
[6] = individual epileptic patients, last dosing interval
[7] = Mean ± SD of seven healthy subjects, single oral 400 mg racemic VCD
[8] = individual healthy subjects, single oral 400 mg racemic VCD
[9] = individual healthy subjects, single oral 400 mg racemic VCD (Nirvanil), stereoisomer in plasma

Row | CL/F [1, 4] | Cmax [1, 4] | MRT [1, 4] | tmax [1, 4] | t½ [1, 4] | half lives [1] | tmax [1, 5] | CL/F [2, 4] | Cmax [2, 4] | tmax [2, 4] | t½ [2, 4] | CL/F [3, 7] | SMILES | CL/F [1, 5] | Cmax [1, 5] | MRT [1, 5] | t½ [1, 5] | CL/F ([2]; individual epileptic patients) | Cmax ([2]; individual epileptic patients) | tmax ([2]; individual epileptic patients) | t½ [2, 6] | further results
1 | 32 ± 7 L/h | 0.78 ± 0.10 mg/L | 5.4 ± 1.5 h | 0.8 ± 0.5 h | 4.1 ± 2.1 h | about 3 h | 1.5 h (2×) and 0.5 h (4×) | 21 ± 4 L/h | 0.9 ± 0.2 mg/L | 1.5 ± 0.3 h | 2.8 ± 0.7 h | 4.2 ± 0.6 L/h | CCC(C)C(CC)C(N)=O (single isomer, unassigned; stereoisomer a) [Stereoisomer A] | 40 L/h and 27 L/h and 35 L/h (2×) and 32 L/h and 20 L/h | 0.71 mg/L (2×) and 0.94 mg/L and 0.82 mg/L and 0.88 mg/L and 0.67 mg/L | 4.4 h and 5.1 h (2×) and 4.3 h and 5.3 h and 8.3 h | 2.8 h and 3.6 h (2×) and 2.5 h and 8.3 h and 3.8 h | 23 L/h and 19 L/h (3×) and 20 L/h and 29 L/h | 0.9 mg/L and 1.1 mg/L and 0.72 mg/L and 0.86 mg/L and 0.8 mg/L and 1.2 mg/L | 2.0 h and 1.5 h (3×) and 1.0 h and 1.75 h | 2.2 h and 2.7 h and 3.8 h (2×) and 2.4 h and 4.8 h | Cmax [3, 7]: 1.7 ± 0.2 mg/L; MRT [3, 7]: 15 ± 3 h; tmax [3, 7]: 0.7 ± 0.3 h; t½ [3, 7]: 10.2 ± 2.1 h; t½ ([3]; Mean ± SD of seven healthy subjects, single oral 400 mg racemic VCD, listed as A): approximately 10 h; CL/F [3, 8]: 3.6 L/h and 4.5 L/h and 4.1 L/h and 3.7 L/h and 4.6 L/h and 4.2 L/h and 3.5 L/h; Cmax [3, 8]: 2.0 mg/L and 1.5 mg/L (2×) and 1.8 mg/L (3×) and 1.7 mg/L; MRT [3, 8]: 13 h (2×) and 20 h and 12 h (2×) and 15 h and 18 h; tmax [3, 8]: 1 h (3×) and 0.5 h (4×); t½ [3, 9]: 8.8 h and 13.6 h and 8.1 h and 10.7 h and 9.5 h and 8.5 h and 12.5 h
2 | 80 ± 20 L/h | 0.41 ± 0.12 mg/L | 4.0 ± 1.6 h | 0.75 ± 0.41 h | 3.0 ± 1.3 h | about 3 h | 1 h and 0.5 h (4×) and 1.5 h | 58 ± 14 L/h | 0.4 ± 0.1 mg/L | 1.4 ± 0.3 h | 2.2 ± 0.5 h | 8.7 ± 0.9 L/h | CCC(C)C(CC)C(N)=O (single isomer, unassigned; stereoisomer b) [Stereoisomer B] | 108 L/h and 60 L/h and 94 L/h and 84 L/h and 56 L/h and 79 L/h | 0.31 mg/L and 0.56 mg/L and 0.3 mg/L and 0.48 mg/L and 0.51 mg/L and 0.32 mg/L | 3.6 h and 5.2 h and 3.3 h and 1.3 h and 5.1 h and 5.6 h | 1.4 h and 4.0 h (2×) and 1.3 h and 3.0 h and 4.1 h | 79 L/h and 50 L/h (2×) and 52 L/h and 71 L/h and 46 L/h | 0.4 mg/L (2×) and 0.5 mg/L (2×) and 0.3 mg/L (2×) | 2.0 h and 1.5 h (3×) and 1.0 h and 1.25 h | 2.0 h and 1.9 h and 2.9 h and 2.1 h and 4.3 h (2×) | Cmax [3, 7]: 1.3 ± 0.2 mg/L; MRT [3, 7]: 8 ± 1 h; tmax [3, 7]: 0.7 ± 0.3 h; t½ [3, 7]: 5.8 ± 1.1 h; t½ ([3]; Mean ± SD of seven healthy subjects, single oral 400 mg racemic VCD, listed as stereoisomer B): ~5.8 h; CL/F [3, 8]: 7.9 L/h (2×) and 9.2 L/h and 8.4 L/h and 10.2 L/h and 8.1 L/h and 9.3 L/h; Cmax [3, 8]: 1.5 mg/L (2×) and 1.1 mg/L (2×) and 1.4 mg/L (3×); MRT [3, 8]: 7.0 h and 10 h (2×) and 7 h and 9 h and 8 h (2×); tmax [3, 8]: 1 h (3×) and 0.5 h (4×); t½ [3, 9]: 4.7 h and 7.3 h and 4.6 h and 6.0 h and 5.8 h and 5.2 h and 7.1 h
3 | 39 ± 8 L/h | 0.7 ± 0.12 mg/L | 4.8 ± 0.4 h | 0.83 ± 0.5 h | 3.3 ± 0.5 h | about 3 h | 1.5 h (2×) and 0.5 h (4×) | 27 ± 5 L/h | 0.8 ± 0.2 mg/L | 1.4 ± 0.3 h | 2.9 ± 0.9 h | 4.3 ± 0.4 L/h | CCC(C)C(CC)C(N)=O (single isomer, unassigned; stereoisomer c) [Stereoisomer C] | 50 L/h and 31 L/h and 44 L/h and 38 L/h and 28 L/h and 41 L/h | 0.55 mg/L and 0.82 mg/L and 0.56 mg/L and 0.76 mg/L and 0.8 mg/L and 0.7 mg/L | 4.4 h and 4.8 h (2×) and 4.2 h and 5.4 h and 5.0 h | 2.8 h and 3.4 h and 2.6 h and 3.7 h (2×) and 3.5 h | 26 L/h and 23 L/h (2×) and 24 L/h and 36 L/h and 28 L/h | 0.81 mg/L and 0.9 mg/L and 0.62 mg/L and 0.7 mg/L and 0.6 mg/L and 1.0 mg/L | 2.0 h and 1.5 h (3×) and 1.0 h and 1.25 h | 2.2 h and 3.0 h and 4.1 h (2×) and 2.3 h and 5.0 h | Cmax [3, 7]: 1.6 ± 0.2 mg/L; MRT [3, 7]: 15 ± 3 h; tmax [3, 7]: 0.7 ± 0.3 h; t½ [3, 7]: 10.3 ± 1.9 h; t½ ([3]; Mean ± SD of seven healthy subjects, single oral 400 mg racemic VCD, listed as C): approximately 10 h; CL/F [3, 8]: 4.0 L/h and 5.1 L/h and 4.3 L/h and 4.1 L/h (2×) and 4.6 L/h and 3.9 L/h; Cmax [3, 8]: 1.8 mg/L (2×) and 1.4 mg/L and 1.7 mg/L (2×) and 1.6 mg/L and 1.5 mg/L; MRT [3, 8]: 12 h (2×) and 18 h (2×) and 14 h and 16 h and 13 h; tmax [3, 8]: 1 h (3×) and 0.5 h (4×); t½ [3, 9]: 8.4 h and 13 h and 8.0 h and 10 h and 11.1 h and 9.2 h and 12.4 h
